According to US20110300198A1, “HYDROCOLLOID - ESSENTIAL OIL PATCHES” (priority 2010, published 2011):
Counter-ions that a name gives are not always drawn. Marks after values point to notes of the source that are not given here. Values belong to the compound of their own block, whether it stands above or below them.

Tests used:
[1] = In-vivo experiment with WAX column, constituents in blood; parameters: species or system rat; conditions: 7.5% lavender oil patch on abdomen; split injection
From the text: Male Sprague-Dawley rats, weighing 300-350 g, were used in the studies (Harlan, Rehovot, Israel). The experimental protocols were approved by the Hebrew University of Jerusalem Committee on the Use and Care of Animals. Rats were maintained under specified-pathogen-free (SPF) conditions and were allowed to acclimate to the environment for at least 7 days before their use in the study. Rats were anesthetized and the fur on their stomach shaved prior to exposure. Gum karaya patches with and without lavender essential oil were applied to the rat's stomach skin. Each rat was housed in an individual cage in order to prevent oral contamination of the essential oil by one rat eating another's patch. Blood samples (0.5 ml) were taken at 0, 12, 24, 36, 48 and 60 h from a nick at the tip of tail to determine contents of essential-oil components. Rats were restrained and the tail was gently massaged to facilitate blood collection. Blood samples were collected in vials containing 0.1 ml heparin (100 kU, Sigma). A 10-μl volume of aqueous linalyl isovalerate stock solution was added as an internal standard to each blood sample and samples were stored at −80° C. […] Urine samples were similarly analyzed by gas chromatography (GC). […]
Patches that included lavender essential oil were adhered to the abdomen skin for 60 h. […] Between 12 and 36 h, a similar, non-significant change in levels was detected. […]

[2] = Preliminary in-vivo experiment, constituents in blood (GC, WAX column); parameters: species or system rat; conditions: rat, in vivo
[3] = cited from earlier work
[4] = In-vivo experiment with HP-5 column, constituents in blood; parameters: species or system rat; conditions: male, Sprague-Dawley, rat, in vivo
From the text: Male Sprague-Dawley rats, weighing 300-350 g, were used in the studies (Harlan, Rehovot, Israel). The experimental protocols were approved by the Hebrew University of Jerusalem Committee on the Use and Care of Animals. Rats were maintained under specified-pathogen-free (SPF) conditions and were allowed to acclimate to the environment for at least 7 days before their use in the study. Rats were anesthetized and the fur on their stomach shaved prior to exposure. Gum karaya patches with and without lavender essential oil were applied to the rat's stomach skin. Each rat was housed in an individual cage in order to prevent oral contamination of the essential oil by one rat eating another's patch. Blood samples (0.5 ml) were taken at 0, 12, 24, 36, 48 and 60 h from a nick at the tip of tail to determine contents of essential-oil components. Rats were restrained and the tail was gently massaged to facilitate blood collection. Blood samples were collected in vials containing 0.1 ml heparin (100 kU, Sigma). A 10-μl volume of aqueous linalyl isovalerate stock solution was added as an internal standard to each blood sample and samples were stored at −80° C. After 60 h, patches were removed and the application site was wiped with 70% alcohol. Animals were sacrificed and the patch of stomach skin to which the essential oil patch had been applied was removed and minced into small pieces. The skin pieces were placed in 1 ml of ethanol containing linalyl isovalerate as the internal standard and sonicated for 30 min after heating to 50° C. A 10-μl aliquot was then injected straight into the gas chromatograph. A urine sample (0.5 ml) was obtained from the bladder immediately after sacrifice. Urine samples were similarly analyzed by gas chromatography (GC).
Blood (0.5 ml) or phosphate buffer (0.5 ml) was collected at t=0, 12, 24, 36, 48 and 60 h. Blood samples were placed in Eppendorf heparin-coated glass vials (Agilent) by heparin-washed syringe, which were sealed with septa and screw caps. Each vial contained 100 μl of heparin and blood samples were frozen at −80° C. for storage. Prior to analysis, the blood or phosphate buffer was thawed to room temperature, a 10-μl volume of internal standards (6.5 mg linalyl isovalerate and 6.5 mg geranyl formate in 25 ml acetonitrile) was added to the vial and then the mixture was vortexed. The vials were tightly capped using a clear cap with septum. The septa were pre-punctured immediately before analysis using a needle to facilitate the insertion of the fiber sheath. The fiber sheath was inserted through the septum, and positioned to expose the fiber in the center of the headspace. The vial was placed on a heating block to maintain temperature at a constant 50° C. and the solid-phase microextraction (SPME) assembly was clamped securely. Absorption time was 30 min. No stirring was required. After absorption, the SPME fiber sheath was immediately transferred to the GC injector for desorption for 5 min and GC analysis.
GC was performed on an Agilent 7890A gas chromatograph equipped with a split/splitless capillary injector, flame ionization detection (FID) system and GC Chem Station (Version B.03.01; Agilent Technologies 2007). Chromatography was carried out on a WAX or HP-5 column (30 m×0.32 mm×0.25 μm). The GC operating conditions were: splitless or split 1:40 injector 240° C., oven 50° C. for 1 min and then 10° C. min^−1 to 160° C., then 25° C. min^−1 to 240° C. and held for 6 min; the carrier gas was hydrogen.
In this experiment, patches containing lavender essential oil were adhered to the abdomen area. Patches without essential oil served as blanks. […] Detection under splitless conditions facilitated the detection of linalyl acetate, linalool, camphor, borneol and α-terpineol, the latter two being additional constituents detected only under these conditions. High concentrations of linalool, borneol and camphor were detected, in comparison to low levels of terpeneol and linalyl acetate. […]

[5] = cited from earlier work; remark: listed apart in the source
[6] = Ex-vivo transfer of essential-oil constituents through the skin in Franz diffusion cells; assay type: in vitro ADME, rat; conditions: for Accumulated concentration transferred through the skin: from gum karaya-Lavandula angustifolia essential oil patch (7.5% oil); for Accumulated concentration diffused through the skin: mixture of Lavandula angustifolia essential oil and almond oil rubbed on the skin
Method: Ex-vivo release studies were performed in Franz diffusion cells (FCs) (PermeGear, Hellertown, Pa.). Stomach skin pieces (1.2 cm×1.2 cm) from a male rat, which were stored in the freezer for 1 month, were thawed at room temperature and placed in glass FCs. The surface area for absorption was 0.64 cm2. The FCs were thermoregulated with a water jacket at 32° C. The 4.5-ml volume of the receptor chamber of the FC was filled with a receptor solution containing 5% (w/v) bovine serum albumin (BSA) diluted with phosphate buffer pH 7.4. […] The receptor solution was continuously agitated with a magnetic stirrer. During the experiments, the donor compartments and sampling arms were sealed to prevent evaporation. The fluid in the receptor chamber was removed after different periods of time (0, 6, 12, 24, 36 and 48 h) and replaced with fresh phosphate buffer solution. Samples were stored at 4° C. after sampling, prior to analysis. Samples were analyzed in a gas chromatograph (Agilent Technologies, Santa Clara, Calif.) with a WAX 30 m×0.32 mm×0.25 μm (Agilent) column.
Transdermal delivery of essential-oil components through rat skin from both lavender essential oil, which includes a high proportion of terpenoids, and Valencia orange essential oil, which includes a considerable amount of terpene, entrapped within gum-karaya-based patches, was examined. In addition to the regular patch adhered to the skin to be tested for essential-oil delivery by the traditional FCs and by in vivo tests (detailed below), another experiment was performed in which the skin was smeared with an almond-essential oil mixture, in order to partially imitate the situation in which the skin is massaged in an aromatherapy session. All experiments were conducted at ambient temperature and the inclusion of the essential oil as part of the almond oil-essential oil mixture (for the massage-like simulation) was equal in quantity and proportion to the inclusion of essential oil within the patch.

[7] = Decomposition of internal standards in blood and skin extract (GC, GC-MS); assay type: in vitro ADME, rat; conditions: for Stability in the blood: GC-MS
Method: Linalyl isovalerate and geranyl formate were tested for their suitability as internal standards for linalool and linalyl acetate using headspace (HS)-SPME. Linalyl isovalerate was chosen as the most appropriate internal standard on the basis of area formed under the peak. A stock solution of linalyl isovalerate in acetonitrile (25 mg L^−1) was further diluted with acetonitrile to produce an aqueous solution of linalyl isovalerate (5 mg L^−1). A 10-μl volume of the aqueous linalyl isovalerate stock solution was added as the internal standard to each sample. Standard was prepared from 0.5 ml of blank blood, 10 μl internal standard (0.0026 mg linalyl isovalerate in 25 ml acetonitrile) and an appropriate dilution of lavender oil in 10 μl acetonitrile. Lavender oil was first dissolved in acetonitrile (625 mg L^−1) and further diluted with acetonitrile to make intermediate standards (0.5, 1, 5, 25 and 125 mg L^−1). The calibration curves were plotted using the peak area ratio of linalool (the main constituent of lavender oil) and linalyl isovalerate vs. linalool concentration. A standard stock solution of lavender oil (625 mg L^−1) was prepared in acetonitrile. Calibration standards for determination of linear dynamic range were prepared by serial dilutions with acetonitrile. For quantitative analysis of lavender oil in the blood, working standard solutions containing 0.5, 1, 5, 25 and 125 mg L^−1 of lavender were prepared by dilution of the 625 mg L^−1 solution with acetonitrile. […] The compounds absorbed on the fiber were detached and analyzed by exposing the fiber for 5 min in the injection port.
Two standards were checked for their suitability to this study: linalyl isovalerate and geranyl formate. […] Thus, although it is not possible to quantify linalool since the lavender essential oil may not be its only source, it is possible to quantify other components of lavender, and linalyl isovalerate was chosen to serve as the standard in the blood.

Level in blood after 60 h [1]: no traces | Detection in blood [2]: No levels of camphor were detected | concentration at 60 h [4]: 35 ng/mL | % diffused (of initial amount of entrapped essential oil) ([6]; Almond-lavandula mixture, 0 h): 0.00^a % | % diffused (of initial amount of entrapped essential oil) ([6]; Almond-lavandula mixture, 6 h): 0.01 ± 0.01^a % | % diffused (of initial amount of entrapped essential oil) ([6]; Almond-lavandula mixture, 12 h): 1.15 ± 1.26^a % | % diffused (of initial amount of entrapped essential oil) ([6]; Almond-lavandula mixture, 24 h): 2.28 ± 0.08^a % | % diffused (of initial amount of entrapped essential oil) ([6]; Lavandula patch, 0 h): 0.00^a % | % diffused (of initial amount of entrapped essential oil) ([6]; Lavandula patch, 6 h): 0.70 ± 0.04^b % | % diffused (of initial amount of entrapped essential oil) ([6]; Lavandula patch, 12 h): 1.02 ± 0.01^c % | % diffused (of initial amount of entrapped essential oil) ([6]; Lavandula patch, 24 h): 2.10 ± 0.32^d % | Accumulated concentration transferred through the skin ([6]; 6 h): 0.51 ± 0.33^a mg/L | Accumulated concentration transferred through the skin ([6]; 12 h): 0.74 ± 0.02^b mg/L | Accumulated concentration transferred through the skin ([6]; 24 h): 1.53 ± 0.13^c mg/L | Accumulated concentration diffused through the skin ([6]; 6 h): 0.01 ± 0.03^a mg L^−1 | Accumulated concentration diffused through the skin ([6]; 12 h): 0.89 ± 0.98^a mg L^−1 | Accumulated concentration diffused through the skin ([6]; 24 h): 1.78 ± 0.06^a mg L^−1 | Calculated steady-state flux ([6]; rubbing in a mixture with almond oil): 5.7×10^−4 mg.cm^−2 h^−1 | Calculated steady-state flux ([6]; transferred from a lavender essential oil patch): 4.3×10^−4 mg.cm^2 h^−1
Structure (SMILES): CC12CCC(CC1=O)C2(C)C (stereo not drawn) [Camphor]
Log P [3]: about 3 | Solubility in water [5]: relatively high

concentration at 60 h [4]: 31 ng/mL
Structure (SMILES): CC1(C)C2CCC1(C)C(O)C2 (stereo not drawn) [borneol, Borneol]

Structure (SMILES): C=C(C)[C@H]1CC=C(C)CC1 [d-Limonene]
Log P [3]: about 4

Stability in the blood [7]: decomposes in the blood
Structure (SMILES): CC(C)=CCC/C(C)=C/COC=O [geranyl formate]

Stability in the blood [7]: decomposes in the blood | Stability in the skin extract ([7]; skin with essential oil-containing patch): did not decompose
Structure (SMILES): C=CC(C)(CCC=C(C)C)OC(=O)CC(C)C (stereo not drawn) [linalyl isovalerate]

Level in blood from 12 h onwards [4]: 5 to 9 ng/mL
Structure (SMILES): CC1=CCC(C(C)(C)O)CC1 (stereo not drawn) [α-Terpeneol, α-Terpineol]
